The test deals with human Nav1.7 (Homo sapiens (Human), UniProt Q15858). As to the kind of experiment: Human Nav1.7 inhibitory activity evaluation (automated patch clamp QPatch16X, HEK293A cells stably expressing human Nav1.7 and human Navβ1). Conditions: human Nav1.7, automated patch clamp. Format: cell-based. The method in brief:
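IC50 calculated from the concentration-response of inward current evoked by the second −10 mV, 50 ms depolarisation, which follows a 15 s conditioning step at roughly 30-40% inactivation and a 100 ms −120 mV interval. Cells: HEK293A expressing human Nav1.7/Navβ1, automated patch clamp, room temperature, 0.1% DMSO final.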

The values that follow come from patent US12421225B2, “Heteroaromatic amide derivative and medicament containing the same” (KAKEN PHARMACEUTICAL CO., LTD., priority 2018, dated 2025).

Chain of human Nav1.7 (Q15858 whole entry): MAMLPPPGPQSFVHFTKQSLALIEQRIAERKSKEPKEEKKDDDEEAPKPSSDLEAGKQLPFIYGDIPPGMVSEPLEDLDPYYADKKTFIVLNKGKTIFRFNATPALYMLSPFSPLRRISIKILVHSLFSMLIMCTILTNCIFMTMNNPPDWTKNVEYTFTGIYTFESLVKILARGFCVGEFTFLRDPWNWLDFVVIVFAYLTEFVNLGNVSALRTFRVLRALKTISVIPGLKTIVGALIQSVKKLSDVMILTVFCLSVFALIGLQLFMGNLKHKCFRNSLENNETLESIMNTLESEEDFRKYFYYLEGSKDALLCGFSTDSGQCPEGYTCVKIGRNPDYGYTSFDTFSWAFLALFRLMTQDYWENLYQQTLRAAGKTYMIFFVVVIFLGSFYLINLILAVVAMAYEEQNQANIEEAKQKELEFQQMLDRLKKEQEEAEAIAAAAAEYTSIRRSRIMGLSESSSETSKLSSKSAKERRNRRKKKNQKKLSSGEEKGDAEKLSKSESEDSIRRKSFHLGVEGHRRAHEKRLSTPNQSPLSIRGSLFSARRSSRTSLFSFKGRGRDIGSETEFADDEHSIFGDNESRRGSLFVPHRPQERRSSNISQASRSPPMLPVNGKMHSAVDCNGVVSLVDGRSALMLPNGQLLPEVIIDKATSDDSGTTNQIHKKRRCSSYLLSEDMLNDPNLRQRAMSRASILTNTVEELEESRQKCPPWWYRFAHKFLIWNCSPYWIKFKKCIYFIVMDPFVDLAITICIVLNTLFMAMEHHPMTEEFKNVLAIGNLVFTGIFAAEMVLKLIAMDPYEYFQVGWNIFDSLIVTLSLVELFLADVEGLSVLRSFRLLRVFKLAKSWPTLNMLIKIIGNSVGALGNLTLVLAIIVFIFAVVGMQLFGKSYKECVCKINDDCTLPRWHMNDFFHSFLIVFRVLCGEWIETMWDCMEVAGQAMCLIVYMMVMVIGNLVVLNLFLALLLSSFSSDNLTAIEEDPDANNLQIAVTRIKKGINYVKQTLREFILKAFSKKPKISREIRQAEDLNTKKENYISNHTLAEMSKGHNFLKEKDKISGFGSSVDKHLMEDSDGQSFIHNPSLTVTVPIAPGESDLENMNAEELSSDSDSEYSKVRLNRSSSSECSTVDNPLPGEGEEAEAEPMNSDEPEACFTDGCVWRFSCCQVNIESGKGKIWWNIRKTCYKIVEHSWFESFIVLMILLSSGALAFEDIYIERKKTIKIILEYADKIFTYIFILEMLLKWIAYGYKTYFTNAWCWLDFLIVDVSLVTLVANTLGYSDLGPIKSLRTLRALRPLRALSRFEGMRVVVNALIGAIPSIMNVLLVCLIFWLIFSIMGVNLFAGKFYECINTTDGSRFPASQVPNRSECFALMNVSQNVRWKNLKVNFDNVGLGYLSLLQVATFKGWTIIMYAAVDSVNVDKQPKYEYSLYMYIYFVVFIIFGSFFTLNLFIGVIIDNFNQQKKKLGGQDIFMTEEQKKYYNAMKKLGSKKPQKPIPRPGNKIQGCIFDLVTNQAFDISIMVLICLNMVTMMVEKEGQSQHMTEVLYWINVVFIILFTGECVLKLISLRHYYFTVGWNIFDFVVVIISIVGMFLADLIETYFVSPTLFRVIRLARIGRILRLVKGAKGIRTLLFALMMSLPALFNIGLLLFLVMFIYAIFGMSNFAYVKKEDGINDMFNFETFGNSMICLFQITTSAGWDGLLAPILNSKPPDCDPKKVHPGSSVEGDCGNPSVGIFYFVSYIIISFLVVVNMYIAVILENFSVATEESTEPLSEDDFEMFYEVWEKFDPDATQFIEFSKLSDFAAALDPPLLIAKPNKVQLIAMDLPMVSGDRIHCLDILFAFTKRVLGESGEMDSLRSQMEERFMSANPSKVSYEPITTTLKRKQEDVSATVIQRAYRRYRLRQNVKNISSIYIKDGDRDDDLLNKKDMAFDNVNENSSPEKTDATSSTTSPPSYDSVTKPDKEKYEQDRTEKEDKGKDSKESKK
Chain of human Nav1.7 (Q07699 19-218 partner): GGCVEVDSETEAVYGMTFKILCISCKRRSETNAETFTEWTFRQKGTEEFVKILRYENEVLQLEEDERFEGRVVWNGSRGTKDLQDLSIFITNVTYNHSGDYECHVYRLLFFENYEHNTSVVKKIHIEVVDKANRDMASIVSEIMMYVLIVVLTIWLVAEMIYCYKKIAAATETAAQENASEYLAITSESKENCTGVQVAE

As a reminder, the IC50 is the concentration that inhibits the measured activity by half. Low values mean greater potency, high ones weaker potency. `O=C(NC1COc2ccccc2C1)c1cc2n(n1)CCN(S(=O)(=O)c1ccccc1C(F)(F)F)C2` (stereo not shown) [Example 511]: the IC50 is below 10 µM.
The figure for `Cc1cc(-c2c(C(=O)N[C@H]3COc4ccc(C(F)(F)F)cc4C3)nc3n2CCOC3)[nH]n1` [Example 512] is below 10 µM; for `O=C(N[C@H]1COc2ccc(C(F)(F)F)cc2C1)c1nn2c(c1-c1cccc(F)n1)COCC2` [Example 513] it is below 1 µM; for `O=C(N[C@H]1COc2ccc(Cl)cc2C1)c1nn2c(c1-c1ccccn1)COCC2` [Example 515] it is below 1 µM.
With `CCc1cccc(-c2c(C(=O)N[C@H]3COc4ccc(C#N)cc4C3)nn3c2COCC3)n1` [Example 516], the IC50 was below 10 µM.
The figure for `O=C(N[C@H]1COc2ccc(C(F)(F)F)cc2C1)c1nn2c(c1-c1ccc3cccnc3c1)COCC2` [Example 517] is below 10 µM.
On to `O=C(N[C@H]1COc2ccc(C(F)(F)F)cc2C1)c1nn2c(c1-c1cccc(CO)n1)COCC2` [Example 519], for which the IC50 is below 10 µM.
The figure for `O=C(N[C@H]1COc2ccc(C(F)(F)F)cc2C1)c1nn2c(c1-c1cccc(COCC(F)(F)F)n1)COCC2` [Example 520] is below 1 µM; for `O=C(N[C@H]1COc2ccc(C(F)(F)F)cc2C1)c1nn2c(c1-c1cccc(CC(F)(F)F)n1)COCC2` [Example 523] it is below 1 µM.
The figure for `Cc1cccc(-c2c(C(=O)N[C@H]3COc4ccc(C(F)(F)F)cc4C3)nn3c2NCCC3)n1` [Example 524] is below 10 µM.
The figure for `O=C(N[C@H]1COc2ccc(COCC(F)(F)F)cc2C1)c1nn2c(c1-c1ccccn1)NCCC2` [Example 525] is below 10 µM; for `O=C(N[C@H]1COc2ccc(C(F)(F)F)cc2C1)c1nn2c(c1-c1cccc(C(O)C(F)(F)F)n1)COCC2` (stereo partly shown) [Example 527] it is below 1 µM; for `O=C(N[C@H]1COc2ccc(C(F)(F)F)cc2C1)c1nn2c(c1-c1ccccn1)COCCC2` [Example 528] it is below 10 µM.
Turning to `COc1cccc(-c2c(C(=O)N[C@H]3COc4ccc(C(F)(F)F)cc4C3O)nn3c2COCC3)n1` (stereo partly shown) [Example 529], the IC50 was below 1 µM.
The figure for `O=C(N[C@H]1COc2ccc(C(F)(F)F)cc2C1)c1cc2n(n1)CCC(COCC1(F)CC1)O2` (stereo partly shown) [Example 533] is below 1 µM; for `O=C(N[C@H]1COc2ccc(C(F)(F)F)cc2C1OCC(F)(F)F)c1cc2n(n1)CCC(C(F)F)O2` (stereo partly shown) [Example 536] it is below 10 µM.
The figure for `O=C(N[C@H]1COc2cc(C(F)(F)F)nn2C1)c1cc2n(n1)CCC(c1ccccc1F)O2` (stereo partly shown) [Example 537] is below 10 µM.
The figure for `O=C(N[C@H]1COc2ccc(C(F)(F)F)cc2C1)c1cc2n(n1)CC(COCC1CC1)CO2` (stereo partly shown) [Example 539] is below 10 µM.
`O=C(NCC1COc2ccc(Cl)cc2C1)c1cc2n(n1)CCC(COC(F)(F)F)O2` (stereo not shown) [Example 542] came in with an IC50 below 10 µM.
The figure for `CCC1(O)c2cc(C(F)(F)F)ccc2OC[C@@H]1NC(=O)c1cc2n(n1)CCC(C(F)F)O2` (stereo partly shown) [Example 544] is below 10 µM; for `O=C(N[C@H]1COc2ccc(COCC(F)(F)F)cc2C1)c1cc2n(n1)CCC1(CC1)CO2` [Example 545] it is below 1 µM.
In turn, `O=C(N[C@H]1COc2ccc(C(F)(F)F)cc2C1OC(F)(F)F)c1cc2n(n1)CCC(C(F)F)O2` (stereo partly shown) [Example 546] registered an IC50 below 1 µM.
The figure for `O=C(N[C@H]1COc2ccc(Cl)cc2C1)c1cn2c(n1)CC(CNCC(F)(F)F)CO2` (stereo partly shown) [Example 548] is below 10 µM; for `CCC1CCn2nc(C(=O)N[C@H]3COc4ccc(C(F)(F)F)nc4C3)cc2O1` (stereo partly shown) [Example 549] it is below 10 µM.
The figure for `O=C(N[C@H]1COc2ccc(C(F)(F)F)nc2C1)c1cc2n(n1)CCC(c1ccccc1F)O2` (stereo partly shown) [Example 550] is below 1 µM; for `COc1c(C(F)(F)F)ccc2c1C[C@@H](NC(=O)c1cc3n(n1)CCC(C(F)F)O3)CO2` (stereo partly shown) [Example 551] it is below 10 µM.
The compound `N#CC1(COCC2CCn3nc(C(=O)N[C@H]4COc5ccc(C(F)(F)F)cc5C4)cc3O2)CC1` (stereo partly shown) [Example 553] registered an IC50 below 10 µM.
The figure for `N#Cc1ccc2c(c1)C[C@@H](NC(=O)c1cc3n(n1)CCC(COCC(F)(F)F)CO3)CO2` (stereo partly shown) [Example 555] is below 1 µM.
Take `O=C(N[C@H]1COc2ccc(CC(F)F)cc2C1)c1cc2n(n1)CCC(COCC(F)(F)F)CO2` (stereo partly shown) [Example 557]: the IC50 was below 1 µM.
The figure for `O=C(N[C@H]1COc2ccc(C(F)(F)F)cc2C1O)c1cc2n(n1)CCC(COCC1CC1)O2` (stereo partly shown) [Example 558] is below 1 µM; for `O=C(N[C@H]1COc2ccc(C(F)(F)F)cc2C1O)c1cc2n(n1)CCC(COCC1CC1)O2` (stereo partly shown) [Example 559] it is below 10 µM; for `O=C(N[C@H]1COc2ccc(C(F)(F)F)cc2C1O)c1cc2n(n1)CC(COCC1CC1)O2` (stereo partly shown) [Example 560] it is below 1 µM.
As to `O=C(N[C@H]1COc2ccc(C(F)(F)F)cc2C1O)c1cc2n(n1)CCC(COCC(F)(F)F)O2` (stereo partly shown) [Example 561], the IC50 is below 10 µM.
The figure for `N#Cc1ccc2c(c1)C[C@@H](NC(=O)c1cc3n(n1)CCC(CC(F)(F)F)O3)CO2` (stereo partly shown) [Example 562] is below 10 µM; for `O=C(N[C@H]1COc2ccc(CC(F)F)cc2C1)c1cc2n(n1)CC(CC1CCOCC1)O2` (stereo partly shown) [Example 564] it is below 10 µM.
The figure for `N#Cc1ccc2c(c1)C[C@@H](NC(=O)c1cc3n(n1)CC(CC1CCOCC1)O3)CO2` (stereo partly shown) [Example 565] is below 1 µM; for `O=C(N[C@H]1COc2ccc(I)cc2C1)c1cc2n(n1)CCC(C(F)F)O2` (stereo partly shown) [Example 566] it is below 1 µM.
In turn, `O=C(N[C@H]1COc2ccc(CC(F)F)cc2C1)c1cc2n(n1)CCC(COCC1(F)CC1)O2` (stereo partly shown) [Example 567] gave an IC50 below 1 µM.
For the compound `COC1c2cc(C(F)(F)F)ccc2OC[C@@H]1NC(=O)c1cc2n(n1)CC(COCC(F)(F)F)O2` (stereo partly shown) [Example 569], the IC50 is below 1 µM.
The figure for `COC1c2cc(C(F)(F)F)ccc2OC[C@@H]1NC(=O)c1cc2n(n1)CCC(COCC(F)(F)F)O2` (stereo partly shown) [Example 570] is below 1 µM.
The figure for `O=C(NC1COc2ccc(Cl)cc2C1O)c1cc2n(n1)CCC(COCC1CC1)O2` (stereo not shown) [Example 571] is below 10 µM; for `N#Cc1ccc2c(c1)C(O)C(NC(=O)c1cc3n(n1)CCC(c1ccccc1F)O3)CO2` (stereo not shown) [Example 573] it is below 10 µM.
The compound `O=C(N[C@H]1COc2cccc(Cl)c2C1)c1cc2n(n1)CCC(COCC(F)(F)F)O2` (stereo partly shown) [Example 574] had a 50% inhibitory concentration (IC50) below 1 µM.
In turn, `Cc1cccc(-c2c(C(=O)N[C@H]3COc4ccc(C(F)(F)F)cc4C3O)nn3c2COCC3)n1` (stereo partly shown) [Example 580] showed an IC50 below 1 µM.
The figure for `CCc1cccc(-c2c(C(=O)N[C@H]3COc4ccc(C(F)(F)F)cc4C3O)nn3c2COCC3)n1` (stereo partly shown) [Example 581] is below 1 µM; for `CCC1(O)CCn2nc(C(=O)N[C@H]3COc4ccc(C(F)(F)F)cc4C3)cc2OC1` (stereo partly shown) [Example 582] it is below 10 µM.
The figure for `O=C(N[C@H]1COc2ccc(C(F)(F)F)cc2C1)c1cc2n(n1)CCC(C1CCOCC1)O2` (stereo partly shown) [Example 583] is below 1 µM; for `O=C(N[C@H]1COc2ccc(Cl)cc2C1)c1cc2n(n1)CCC(C1CCOCC1)O2` (stereo partly shown) [Example 584] it is below 1 µM; for `N#Cc1ccc2c(c1)C[C@@H](NC(=O)c1cc3n(n1)CCC(C1CCOCC1)O3)CO2` (stereo partly shown) [Example 585] it is below 10 µM.
The figure for `O=C(N[C@H]1COc2ccc(CC(F)F)cc2C1)c1cc2n(n1)CCC(C1CCOCC1)O2` (stereo partly shown) [Example 586] is below 1 µM; for `O=C(N[C@H]1COc2ccc(C(F)(F)F)cc2C1O)c1cc2n(n1)CC(CSCC(F)(F)F)O2` (stereo partly shown) [Example 587] it is below 10 µM.
The compound `O=C(N[C@H]1COc2ccc(C(F)(F)F)cc2C1O)c1cc2n(n1)CC(CCOCC(F)(F)F)O2` (stereo partly shown) [Example 588] returned an IC50 below 1 µM.
With `O=C(N[C@H]1COc2ccc(C(F)(F)F)cc2C1O)c1cc2n(n1)CC(CCOCC(F)(F)F)O2` (stereo partly shown) [Example 589], the IC50 is below 10 µM.
Compound `O=C(N[C@H]1COc2ccc(C(F)(F)F)cc2C1O)c1cc2n(n1)CC(CCCOCC(F)(F)F)O2` (stereo partly shown) [Example 591] registered an IC50 below 1 µM.
The figure for `O=C(N[C@H]1COc2ccc(C(F)(F)F)cc2C1O)c1cc2n(n1)CC(CCCOCC(F)(F)F)O2` (stereo partly shown) [Example 592] is below 10 µM.
The figure for `O=C(N[C@H]1COc2ccc(C(F)(F)F)cc2C1O)c1cc2n(n1)CC(CCOCC1CC1)O2` (stereo partly shown) [Example 595] is below 1 µM; for `CCC1CCn2nc(C(=O)N[C@H]3COc4ccc(C(F)(F)F)cc4C3O)cc2O1` (stereo partly shown) [Example 599] it is below 1 µM; for `O=C(N[C@H]1COc2ccc(COCC(F)(F)F)cc2C1)c1cc2n(n1)CCC(C1CCOCC1)O2` (stereo partly shown) [Example 606] it is below 1 µM.
The figure for `O=C(N[C@H]1COc2ccc(C(F)(F)F)cc2C1O)c1cc2n(n1)CC(CCCOCC(F)F)O2` (stereo partly shown) [Example 607] is below 1 µM; for `O=C(N[C@H]1COc2ccc(C(F)(F)F)cc2C1O)c1cc2n(n1)CC(CCCOCC(F)F)O2` (stereo partly shown) [Example 609] it is below 10 µM; for `O=C(N[C@H]1COc2ccc(Cl)cc2C1)c1cc2n(n1)CCC(C1CCOC1)O2` (stereo partly shown) [Example 611] it is below 1 µM.
Consider `O=C(N[C@H]1COc2ccc(C(F)(F)F)cc2C1)c1cc2n(n1)CCC(C1CCOC1)O2` (stereo partly shown) [Example 612], for which the IC50 was below 10 µM.
The figure for `O=C(N[C@H]1COc2ccc(C(F)(F)F)cc2C1F)c1cc2n(n1)CCC(C1CCOC1)O2` (stereo partly shown) [Example 613] is below 1 µM; for `CC1(COCC2CC2)Cn2nc(C(=O)N[C@H]3COc4ccc(C#N)cc4C3)cc2O1` (stereo partly shown) [Example 618] it is below 10 µM.
The figure for `CC1(COCC2CC2)Cn2nc(C(=O)N[C@H]3COc4ccc(CC(F)F)cc4C3)cc2O1` (stereo partly shown) [Example 619] is below 10 µM.
On to `O=C(N[C@H]1COc2ccc(C(F)(F)F)cc2C1)c1cc2n(n1)CCC(C1COCCO1)O2` (stereo partly shown) [Example 620], for which the IC50 was below 1 µM.
The figure for `COC1c2cc(C(F)(F)F)ccc2OC[C@@H]1NC(=O)c1cc2n(n1)CC(CCOCC(F)(F)F)O2` (stereo partly shown) [Example 621] is below 1 µM.
